Paper PMC10951066, “The self-reactive FVIII T cell repertoire in healthy individuals relies on a short set of epitopes and public clonotypes” (Frontiers in Immunology, 2024)

Test system: CD4 T cells from healthy donors
Assay: Large-scale CD4 T cell epitope mapping by IFN-γ ELISPOT (16 donors)
Type: cell-based, human
Settings: for nb positive T cell lines: across all 16 donors; for cumulative donor coverage (%): cumulative over peptides ranked by donor coverage; for Donor coverage ( %): of 16 donors; for responding donors: of 16 healthy donors, individual peptide 10 µg/ml; for response intensity ( %): percentage of 872 FVIII-specific T cell lines
Description: PBMCs were purified from the whole blood of anonymous healthy donors, who gave informed consent (Etablissement Français du Sang, Rungis, France), using Ficoll-Paque®. Monocyte-derived dendritic cells (DCs) were produced from cells isolated using Percoll gradient by 5 days of culture in AIM-V medium (Invitrogen, Villebon-sur-Yvette, France) supplemented with 1,000 U/ml recombinant human (rh) IL-4 and rhGM-CSF (both from R&D Systems, Lille, France). Mature DCs were produced by two supplementary days of culture in the presence of LPS (1 µg/ml) and R848 (10µg/ml). CD4 T cells were isolated from autologous PBMCs by positive selection using magnetic labeling with anti-CD4 mAbs conjugated to magnetic microbeads followed by magnetic cell sorting, as recommended by the manufacturer (Miltenyi Biotec, Bergisch Gladbach, Germany). Immature DCs were loaded overnight at 37 °C with either 0.2 µM of rFVIII, 0.2 µM of ovalbumin, or 0.25 µM of KLH in 96-well U-bottom plates, while mature DCs were used for FVIII peptides (10 ug/ml). CD4 T cell lines were generated in vitro in IMDM (Invitrogen) supplemented with 10% human serum, 0.24 mM glutamine, 0.55 mM asparagine, 1.5 mM arginine (all amino acids from Sigma-Aldrich), 50 U/mL penicillin/50 μg/mL of streptomycin (Invitrogen), 20 IU/mL human IL-2, and 17 IU/ml human IL-7 (premium-grade; Miltenyi Biotec) by three once-per-week rounds of stimulation of CD4 T cells (200,000 per well) with autologous DCs (20,000 per well). 10,000 lymphocytes were collected at day 19 from each T cell line (expanded T cells contained in one well) and their specificity was assessed by using IFN-g ELISPOT.
The T cell lines and APCs were plated at equal number for both stimulated and unstimulated control conditions. […] The spot number was determined by using the ELISPOT Reader System (Autoimmun Diagnostika, Ebinger, Germany). HLA restriction was assessed using monoclonal antibodies (10 μg/ml) specific to HLA-DP (B7/21), HLA-DQ (SPVL3), or HLA-DR (L243).
Based on the T cell epitope prediction software NetMHCpan4.0 ([23]), we selected 63 20-mer peptides that are predicted for their ability to bind promiscuously, with a percentile score below 10%, at least four HLA class II molecules from a selection of 15 preponderant HLA-DR alleles in our panel (as shown in ST1). […] A total of 16 healthy donors with unrelated HLA typing (ST2) were used as sources of T cells to identify FVIII-specific CD4 T cell epitopes. Specific T cell lines were generated by in vitro T cell culture using FVIII and KLH. The peptide specificity of the T cell lines raised against FVIII was assessed by two independent IFN-γ ELISPOT using peptide pools and individual peptides. […] Furthermore, four independent healthy donors were used as sources of T cells to characterize the HLA restriction and to assess the reactivity of T cell lines generated with the 18 peptides toward rFVIII. T cell lines were amplified in vitro for 28 days through stimulation with the pool of 18 peptides and then tested through IFN-γ ELISPOT.

Sequence	nb positive T cell lines	cumulative donor coverage (%)	Donor coverage ( %)	responding donors	response intensity ( %)
ATRRYYLGAVELSWDYMQSD [P20-39, 20-mer FVIII peptide, A1 domain]	43	81%	62%	10	4,93%
DHLFNIAKPRPPWMGLLGPT [P75-94, 20-mer FVIII peptide, A1 domain]	38	81%	69%	11	4,36%
HPQSWVHQIALRMEVLGCEA [P2328-2347, 20-mer FVIII peptide, C2 domain]	23		56%	9	2,64%
INGYIMDTLPGLVMAQDQRI [P1940-1959, 20-mer FVIII peptide, A3 domain]	14	94%	56%	9	1,61%
KARLHLQGRSNAWRPQVNNP [P2226-2245, 20-mer FVIII peptide, C2 domain]	12		56%	9	1,38%
KEPFSWIKVDLLAPMIIHGI [P2084-2103, 20-mer FVIII peptide, C1 domain]	20	94%	56%	9	2,29%
KKEEYKMALYNLYPGVFETV [P1986-2005, 20-mer FVIII peptide, A3 domain]	18		50%	8	2,06%
KLARLHYSGSINAWSTKEPF [P2068-2087, 20-mer FVIII peptide, C1 domain]	20		50%	8	2,29%
LGQFLLFCHISSHQHDGMEA [P322-341, 20-mer FVIII peptide, A1 domain]	27	81%	62%	10	3,10%
LLTRYLRIHPQSWVHQIALR [P2320-2339, 20-mer FVIII peptide, C2 domain]	10		50%	8	1,15%
LSHVDLVKDLNSGLIGALLV [P178-197, 20-mer FVIII peptide, A1 domain]	19	81%	56%	9	2,18%
PPIIARYIRLHPTHYSIRST [P2161-2180]	21		56%	9	2,41%
RHYFIAAVERLWDYGMSSSP [P1715-1734, 20-mer FVIII peptide, A3 domain]	16		50%	8	1,83%
SLYISQFIIMYSLDGKKWQT [P2114-2133, 20-mer FVIII peptide, C1 domain]	10		50%	8	1,15%
VHSIFLEGHTFLVRNHRQAS [P285-304, 20-mer FVIII peptide, A1 domain]	44	75%	75%	12	5,05%
YDTVVITLKNMASHPVSLHA [P100-119, 20-mer FVIII peptide, A1 domain]	44	81%	69%	11	5,05%
